According to patent US7297790B2, “Anhydrous mirtazapine crystals and process for preparing the same” (Sumitomo Chemical Company, Limited, priority 1999, dated 2007):

Assay: Hygroscopic degree of crystals stored at constant temperature and humidity (petri dish, weight gain)
Assay type: physicochemical
Settings: 75% relative humidity, chamber temperature 25° C., after 500 hours; compared with Comparative Example 3
Description: Next, the mirtazapine crystals obtained in Example 7 and Comparative Example 3 were placed on a petri dish, and the petri dish was placed in a constant temperature and humidity of 75% relative humidity and a chamber temperature of 25° C., and the change in the hygroscopic degree of the crystals was evaluated. Incidentally, the hygroscopic degree is calculated by the following equation: [Hygroscopic Degree (% by weight)]=[(Weight (g) of Crystals After Treatment)−(Weight (g) of Crystals Before Treatment)]÷[Weight (g) of Crystals Before Treatment]×100

hygroscopic degree with the passage of time (FIG. 2), in words: very low
SMILES: CN1CCN2c3ncccc3Cc3ccccc3C2C1 (stereo not shown) [Example 7, anhydrous mirtazapine]
